# Measured values: paper PMC12677607, “Identification of a Pair of Linear or Cyclic Naturally Inspired Bifunctional Lipopeptide Antibiotics That Overcome Antimicrobial Resistance” (Advanced Science, 2025)
# Bridge positions count the residues as written; N and C are the ends. Square brackets hold non-standard residues; d marks the D form. Peptide text beside a SMILES is read from it. * marks the point of attachment. Octanoyl(3R-OH) = CCCCC[C@@H](O)CC(=O)*; Myristoyl = CCCCCCCCCCCCCC(=O)*; Orn = NCCC[C@H](N)C(=O)O; Dab = NCC[C@H](N)C(=O)O; Dap = NC[C@H](N)C(=O)O
# Columns and labels:
# [1] = test system: Acinetobacter baumannii 1104008; test: microbe, parasite or virus in culture; assay type: cell-based; conditions: for MIC (μg/mL) A. baumannii 1104008: 1104008, 16 h
# Description: (§1) All MIC assays were performed two independent times (n = 2) in 96‐well plates using a broth micro‐dilution method. The lowest concentration of that inhibited visible microbial growth was recorded as the MIC value.
# (§2) For most of bacterial strains, overnight cultures were diluted 5000‐fold in LB broth. For E. faecium and S. aureus, overnight cultures were diluted 1000‐ and 10000‐fold in LB broth, respectively. 100 µL of diluted cells was mixed with 100 µL of LB broth containing each peptide ranging from 64 to 0.125 µg mL^−1 at 2‐fold serial dilutions.
# [2] = test system: Klebsiella pneumoniae CRKP 5452; test: microbe, parasite or virus in culture; assay type: cell-based; conditions: for MIC (μg/mL) K. pneumoniae CRKP 5452: CRKP 5452, 16 h
# Description: as §1, §2
# [3] = test system: Staphylococcus aureus USA300; test: microbe, parasite or virus in culture; assay type: cell-based; conditions: USA300, 16 h
# Description: as §1, §2
# [4] = test system: Streptococcus pyogenes ATCC 19615; test: microbe, parasite or virus in culture; assay type: cell-based; conditions: ATCC 19615, 16 h
# Description: as §1, §2
# [5] = test system: Candida albicans ATCC 10231; test: MIC assay (YPD broth); assay type: cell-based; conditions: ATCC 10231, 16 h
# Description: as §1
# For fungal strains, overnight cultures were diluted 2000‐fold in YPD broth. 100 µL of diluted cells was mixed with 100 µL of YPD broth containing each peptide ranging from […] 64 to 0.125 µg mL^−1 at 2‐fold serial dilutions.
# HeLa cells = test: Cytotoxicity assay (CCK-8); assay type: cell-based, human; conditions: 48 h
# Description: The cytotoxicity of each synAQU peptide was assessed using a cell counting kit‐8 (CCK‐8) assay. HeLa cells were first seeded in a 96‐well flat‐bottom microtiter plate with a density of ∼5000 cells per well and incubated in the DMEM medium supplemented with 10% FBS at 37 °C with 5% CO2 for 24 h. […] All cytotoxicity experiments were done in triplicate (n = 3) and repeated two independent times (n = 2).
# Shigella Castellani LXX = test: MIC assay (broth micro-dilution); assay type: cell-based; conditions: Shigella; Table S11; LB broth, 37 °C, 16 h, n = 2
# Description: as §1, §2
# [6] = test system: Acinetobacter baumannii ATCC 17978; test: microbe, parasite or virus in culture; assay type: cell-based; conditions: Acinetobacter baumannii, ATCC17978; Table S11; LB broth, 37 °C, 16 h, n = 2
# Description: as §1, §2
# [7] = test system: Acinetobacter baumannii ATCC 19606; test: microbe, parasite or virus in culture; assay type: cell-based; conditions: Acinetobacter baumannii, ATCC19606; Table S11; LB broth, 37 °C, 16 h, n = 2
# Description: as §1, §2
# [8] = test system: Acinetobacter baumannii P53; test: microbe, parasite or virus in culture; assay type: cell-based; conditions: Acinetobacter baumannii, P53; Table S11; LB broth, 37 °C, 16 h, n = 2
# Description: as §1, §2
# [9] = test system: Klebsiella pneumoniae ATCC 13883; test: microbe, parasite or virus in culture; assay type: cell-based; conditions: Klebsiella pneumoniae, ATCC13883, 16 h, read-out: MIC Klebsiella pneumoniae ATCC 13883
# Description: as §1, §2
# [10] = test system: Klebsiella pneumoniae CRKP HS11286; test: microbe, parasite or virus in culture; assay type: cell-based; conditions: Klebsiella pneumoniae, CRKPHS11286, 16 h, read-out: MIC Klebsiella pneumoniae CRKP HS11286
# Description: as §1, §2
# [11] = test system: Klebsiella pneumoniae NCTC 5056; test: microbe, parasite or virus in culture; assay type: cell-based; conditions: Klebsiella pneumoniae, NCTC5056, 16 h, read-out: MIC Klebsiella pneumoniae NCTC 5056
# Description: as §1, §2
# [12] = test system: Pseudomonas aeruginosa ATCC 9027; test: microbe, parasite or virus in culture; assay type: cell-based; conditions: Pseudomonas aeruginosa, ATCC9027; Table S11; LB broth, 37 °C, 16 h, n = 2
# Description: as §1, §2
# [13] = test system: Pseudomonas aeruginosa PAO1; test: microbe, parasite or virus in culture; assay type: cell-based; conditions: Pseudomonas aeruginosa, PAO1; Table S11; LB broth, 37 °C, 16 h, n = 2
# Description: as §1, §2
# [14] = test system: Salmonella enterica ATCC 14028; test: microbe, parasite or virus in culture; assay type: cell-based; conditions: Salmonella enterica, ATCC14028, 16 h, read-out: MIC Salmonella enterica ATCC 14028
# Description: as §1, §2
# [15] = test system: Salmonella typhimurium LXX; test: microbe, parasite or virus in culture; assay type: cell-based; conditions: Salmonella enterica, TYPHIMURIUM, 16 h, read-out: MIC Salmonella typhimurium LXX
# Description: as §1, §2
# [16] = test system: Vibrio alginolyticus XSBZ14; test: microbe, parasite or virus in culture; assay type: cell-based; conditions: Vibrio alginolyticus, XSBZ14, 16 h, read-out: MIC Vibrio alginolyticus XSBZ14
# Description: as §1, §2
SMILES,MIC (μg/mL) A. baumannii 1104008 [1] [µg/mL],MIC (μg/mL) K. pneumoniae CRKP 5452 [2] [µg/mL],MIC (μg/mL) S. aureus USA300 [3] [µg/mL],MIC (μg/mL) S. pyogenes ATCC 19615 [4] [µg/mL],MIC (μg/mL) C. albicans ATCC 10231 [5] [µg/mL],MIC (μg/mL) Hela (HeLa cells) [µg/mL],MIC (Shigella Castellani LXX) [mg/L],"MIC ([1]; Acinetobacter baumannii, 1104008, Table S11, LB broth, 37 °C, 16 h, n = 2) [mg/L]",MIC [6] [mg/L],MIC [7] [mg/L],MIC [8] [mg/L],MIC [9] [mg/L],"MIC ([2]; Klebsiella pneumoniae, CRKP5452, Table S11, LB broth, 37 °C, 16 h, n = 2) [mg/L]",MIC [10] [mg/L],MIC [11] [mg/L],MIC [12] [mg/L],MIC [13] [mg/L],MIC [14] [mg/L],MIC [15] [mg/L],MIC [16] [mg/L]
CCCCCCCCCCCCCC(=O)N[C@@H](Cc1ccccc1)C(=O)N[C@H]1CCCNC(=O)CNC(=O)[C@H](CCN)NC(=O)[C@@H](Cc2ccc(O)cc2)NC(=O)[C@H](CC(C)C)NC(=O)[C@H]([C@@H](C)CC)NC(=O)[C@@H](C(C)C)NC(=O)[C@H](CCCN)NC1=O [synAQU2-C2] (Myristoyl-F[Orn][Orn][dV]IL[dY][Dab]G; lactam 2-C (inferred)),> 64,> 64,> 64,> 64,> 64,> 64,,,,,,,,,,,,,,
CCCCC[C@@H](O)CC(=O)N[C@@H](CN)C(=O)N[C@@H](Cc1ccccc1)C(=O)N[C@@H](CCN)C(=O)N[C@@H]1C(=O)N[C@H](Cc2ccccc2)C(=O)N[C@@H](CN)C(=O)N[C@H](CC(C)C)C(=O)N[C@@H](C(C)C)C(=O)N[C@@H](CC(=O)O)C(=O)O[C@@H]1C [synAQU3-C4] ({Octanoyl(3R-OH)}-[Dap]F[Dab]T[dF][Dap][dL]VD; ester 4-C (inferred)),> 64,> 64,> 64,> 64,> 64,> 64,,,,,,,,,,,,,,
CCCCC[C@@H](O)CC(=O)N[C@@H](CN)C(=O)N[C@@H](Cc1ccccc1)C(=O)N[C@@H](CCN)C(=O)N[C@H](C(=O)N[C@H](Cc1ccccc1)C(=O)N[C@@H](CN)C(=O)N[C@H](CC(C)C)C(=O)N[C@H](C(=O)N[C@@H](CC(=O)O)C(=O)O)C(C)C)[C@@H](C)O [synAQU3-L] ({Octanoyl(3R-OH)}-[Dap]F[Dab]T[dF][Dap][dL]VD-OH),> 64,> 64,> 64,> 64,> 64,> 64,,,,,,,,,,,,,,
CCCCC[C@@H](O)CC(=O)N[C@@H](CN)C(=O)N[C@@H](Cc1ccccc1)C(=O)N[C@H]1CCNC(=O)[C@H](CC(=O)O)NC(=O)[C@H](C(C)C)NC(=O)[C@@H](CC(C)C)NC(=O)[C@H](CN)NC(=O)[C@@H](Cc2ccccc2)NC(=O)[C@H]([C@@H](C)O)NC1=O [synAQU3-C3] ({Octanoyl(3R-OH)}-[Dap]F[Dab]T[dF][Dap][dL]VD; lactam 3-C (inferred)),> 64,> 64,> 64,> 64,> 64,> 64,,,,,,,,,,,,,,
CCCCC[C@@H](O)CC(=O)N[C@H]1CNC(=O)[C@H](CC(=O)O)NC(=O)[C@H](C(C)C)NC(=O)[C@@H](CC(C)C)NC(=O)[C@H](CN)NC(=O)[C@@H](Cc2ccccc2)NC(=O)[C@H]([C@@H](C)O)NC(=O)[C@H](CCN)NC(=O)[C@H](Cc2ccccc2)NC1=O [synAQU3-C1] ({Octanoyl(3R-OH)}-[Dap]F[Dab]T[dF][Dap][dL]VD; lactam 1-C (inferred)),> 64,> 64,> 64,> 64,> 64,> 64,,,,,,,,,,,,,,
CCCCCCCCCCCCCC(=O)N[C@@H](Cc1ccccc1)C(=O)N[C@@H](CCCN)C(=O)N[C@@H](CCCN)C(=O)N[C@@H](C(=O)N[C@H](C(=O)N[C@@H](CC(C)C)C(=O)N[C@H](Cc1ccc(O)cc1)C(=O)N[C@@H](CCN)C(=O)NCC(=O)O)[C@@H](C)CC)C(C)C [synAQU2-L] (Myristoyl-F[Orn][Orn][dV]IL[dY][Dab]G-OH),> 64,> 64,> 64,> 64,> 64,> 64,,,,,,,,,,,,,,
"C[C@@H](O)[C@H]1C(=O)N2C(C(=O)O)=C(S[C@@H]3CN[C@H](C(=O)N(C)C)C3)[C@H](C)[C@H]12 [Meropenem, reference compound]",,,,,,,0.125,16,0.25,0.5,32,< 0.125,16,8,0.125,0.25,16,0.125,0.125,< 0.125
